From patent US10854312B2, “Selective peptide antagonists” (BIONIZ, LLC, priority 2013, dated 2020)
No end group written: not given here.

Tests used:
γc-cytokines = experiment: Target cytokine spectrum within the γc-family; format: cell-based
IL-17A and IL-17F = experiment: Inhibition of IL-17 family members; details: no test described
IL-6 = experiment: T1165 cell proliferation assay, IL-6; format: cell-based
Experimental: CTLL2 cells are cultured in the presence of 5 u/ml and 10 u/ml of IL-2 (FIG. 10A) and 2.5 ng/ml and 5 ng/ml of IL-15 (FIG. 10B) in the presence of increasing concentration of BNZ132-PEG-130. T1165 cells are cultured with 0.1 ng/ml of IL-6 (FIG. 10C) and increasing concentration of BNZ132-PEG-130. […] BNZ132-1 was conjugated to BNZ130 via a PEG24 linker. The name of the bi-antagonist peptide is BNZ132-PEG-130. FIG. 10A and FIG. 10B show the results of BNZ132-PEG-130 in IL-2 (FIG. 10A) and IL-15 (FIG. 10B) CTLL2 proliferation assay. Cells were washed and incubated with IL-2 (5 and 10 units/ml), IL-15 (2.5 and 5 ng/ml) in the presence or absence of BNZ132-PEG-130 (0.1-10 μM). Cells were then pulsed with the WST-1 reagent to measure the proliferative response for the next 6 hr (OD450). […] Cells are washed and incubated with IL-6 (0.1 ng/ml) in the presence or absence of BNZ132-PEG-130 (0.1-10 μM) for 24 hours. Cells were then pulsed with WST-1 reagent for the following 6 hr to measure OD450. The BNZ130-1 polypeptide as presented in Table 2, above, is tested for its activity in inhibiting IL-6 activity. T1165 cells that are dependent on human or mouse IL-6 for their growth in vitro are selected. The cell line is cultured in the absence of IL-6, In the presence of IL-6, in the presence of BNZ130-1, and in the presence of IL-6 and BNZ130-1.

Substance: BNZ gamma: polypeptide SEQ ID NO: 130 (Table 6) of IL-15, IL-2 and IL-9 D-helix fragments; probably the same as BNZ132-1 (IKEFLQSFIHIVQSIINT)
- γc-cytokines not inhibited (γc-cytokines; IL-4, IL-7 and IL-21): does not exhibit inhibitory activity
- γc-cytokines inhibited (γc-cytokines; summary statements, BNZ132-2 and -3 data not shown): inhibitory activity against all of IL-2, IL-15 and IL-9

Substance: BNZ17-1: inhibitory polypeptide SEQ ID NO: 144 of IL-17A and IL-17F target region fragments (Table 7) (YSRSTSPWRYHRDRDPNRYPSDLYHAKC)
- specific inhibition within the IL-17 family (IL-17A and IL-17F): specifically inhibits IL-17A and IL-17F to the exclusion of the remaining family members

Substance: LTHLIERSSRAVLQSLLRASRQ [BNZ130-1]
- antagonistic activity on T1165 proliferation in the presence of IL-6 (IL-6; Example 11, T1165 cells dependent on IL-6): dose-dependent antagonistic activity
- effect on T1165 cell survival (IL-6; Example 11, with or without IL-6): does not affect T1165 survival
